{"source": "patent US7763707B2", "about": "“Use of ghrelin splice variant for treating cachexia and/or anorexia and/or anorexia-cachexia and/or malnutrition and/or lipodystrophy and/or muscle wasting and/or appetite-stimulation” (priority 2006, dated 2010)", "key": {"[1]": {"experiment": "Subcutaneous administration of acylated ghrelin splice variant: weight gain, food consumption, body composition in 129Sv mice", "format": "in vivo", "protocol": "FIG. 1A is a line graph showing cumulative body weight gain of acylated ghrelin splice variant-treated (SEQ ID NOs: 2 and 5) 129Sv mice compared to vehicle-treated controls. Acylated ghrelin splice variant induces body weight gain in male wild-type mice (n=10 per group, P=0.0001). In mice treated once daily for two weeks with acylated ghrelin splice variant (0.8 mg/kg, subcutaneously), cumulative weight gain of the SEQ ID NO:2 group was 3.4 times more than the vehicle-injected control animals. Cumulative weight gain of the acylated SEQ ID NO:5 group was 2 times more than the vehicle-injected control animals. FIG. 1B is a line graph showing cumulative food consumption of acylated ghrelin splice variant-treated (SEQ ID NOs: 2 and 5) 129Sv mice compared to vehicle-treated controls. […] Mice treated once daily for two weeks with acylated ghrelin splice variant (0.8 mg/kg, subcutaneously) ate 13% more than the vehicle-injected control animals (n=10 per group, P=0.004).\nFIG. 2A is a line graph showing cumulative body weight gain of acylated ghrelin splice variant-treated (SEQ ID NOs: 2 and 4) 129Sv mice and of unacylated SEQ ID NO:5 compared to vehicle-treated controls. Acylated ghrelin splice variants induces body weight gain in male wild-type mice (n=8 per group, P=0.0001). In mice treated once daily for seven days with acylated or un-acylated ghrelin splice variant (7.2 mg/kg, subcutaneously), cumulative weight gain of the SEQ ID NO:2 and SEQ ID NO:4 group was 2.2 times more than the vehicle-injected control animals. Cumulative weight gain of the un-acylated SEQ ID NO:5 group was 25% less than the vehicle-injected control animals. FIG. 2B is a line graph showing cumulative food consumption of acylated ghrelin splice variant-treated (SEQ ID NOs: 2 and 4) 129Sv mice and of unacylated SEQ ID NO:5 compared to vehicle-treated controls. […] Mice treated once daily for seven days with acylated ghrelin splice variants (7.2 mg/kg, subcutaneously) ate 18% more than the vehicle-injected control animals (n=8 per group). Mice treated once daily for seven days with SEQ ID NO:5 (7.2 mg/kg, subcutaneously) ate 2% less than the vehicle-injected control animals (n=8 per group).\nFIG. 4 is a bar graph showing the change in body composition of acylated ghrelin splice variant-treated (SEQ ID NOs: 2 and 4) 129Sv mice and unacylated SEQ ID NO:5 treated mice compared to vehicle and ghrelin-treated controls. Effect of seven days daily subcutaneous treatment with saline, ghrelin or acylated ghrelin splice variant (7.2 mg/kg, subcutaneously) on fat and lean body mass as measured by NMR is shown.\nAcylated ghrelin splice variant (20 μg (FIGS. 1A and 1B) or 180 μg (FIGS. 2A and 2B)) or the Vehicle (1.6% mannitol) were administered once daily for 14 successive days (FIGS. 1A and 1B) or 7 successive days (FIGS. 2A and 2B), via the subcutaneous (SC) route, to groups comprising n=10 (FIGS. 1A and 1B) or n=8 (FIGS. 2A and 2B) 129Sv male mice. […] All animals were subjected to terminal bleeding, under CO2 anesthesia, immediately prior to euthanasia. Terminal blood collection was performed serially as per animal number, and not as per group.\nBiochemistry: Blood for biochemistry analysis was collected into non-coated pre-labeled tubes. The tubes were pre-labeled and contained the following information: Study number, group number, animal number and date. Following clotting, the blood from each animal was centrifuged, and the serum was collected into two pre-labeled tubes and submitted for analysis as follows: Serum, 250 μl, was kept at 2-8° C. until analysis. The samples were subjected to the following listed tests using a Hitachi 917 system: Creatinine, Total bilirubin, Glucose, Triglycerides, Cholesterol, HDL, LDL, Total protein, Globulin, Albumin, Urea, Potassium, Phosphorus, Calcium, Sodium, Chloride, sGOT, sGPT, ALP. Urinalysis: Urine was collected into pre-labeled tubes (as above) from all animals (where possible) prior and/or after euthanasia. […]"}, "[2]": {"details": "cited from earlier work"}, "[3]": {"details": "129Sv male mice, 0.8 mg/kg subcutaneously once daily for two weeks, n=10 per group"}, "[4]": {"details": "129Sv male mice, 7.2 mg/kg subcutaneously once daily for seven days, n=8 per group"}}, "note": "Square brackets hold non-standard residues; d marks the D form. Ends that are not written are not given here. * marks the point of attachment. Octanoyl = CCCCCCCC(=O)*; Dap = NC[C@H](N)C(=O)O", "data": [{"substance": "acylated SEQ ID NO:5: 29 amino acid human ghrelin splice variant, acylated at position 3 (GSSFLSPEHQRVQVRPPHKAPHVVPALPL; also: acylated at position 3 (acyl group not given here); listed as Homo sapiens)", "values": [{"measurement": "cumulative weight gain, times more than the vehicle-injected control animals", "setting": "[1]; [3]", "value": 2, "unit": "times"}]}, {"substance": "ghrelin: 28 amino acid peptide bearing an n-octanoyl side chain on the third serine (GSS(Octanoyl)FLSPEHQRVQQRKESKKPPAKLQPR; UniProt Q9UBU3 24-51, looked up)", "values": [{"measurement": "increase of food intake", "setting": "[2]; infusion for 90 minutes, cancer cachexia patients", "value": 30, "unit": "%"}, {"measurement": "increase of energy intake", "setting": "[2]; subcutaneous injection of 3.6 nmol/kg prior to a meal", "value": 27, "unit": "%"}, {"measurement": "effect of weight gain (lean vs fat mass)", "setting": "[1]; Applicant's statement in the background", "value": "mainly on fat mass"}]}, {"substance": "GSS (CO—C7H15) FLSPEHQRVQVRPPHKAPH (GSS(Octanoyl)FLSPEHQRVQVRPPHKAPH; listed as Homo sapiens) [SEQ ID NO:2, 22 amino acid human ghrelin splice variant, acylated at position 3]", "values": [{"measurement": "cumulative weight gain, times more than the vehicle-injected control animals", "setting": "[1]; [3]", "value": 3.4, "unit": "times"}, {"measurement": "cumulative weight gain, times more than the vehicle-injected control animals", "setting": "[1]; [4]", "value": 2.2, "unit": "times"}]}, {"substance": "SEQ ID NO:4: 24 amino acid human ghrelin splice variant having a 2,3-diaminopropionic acid (Dpr) residue in the third position, acylated (GS[Dap]FLSPEHQRVQVRPPHKAPHVV; also: Dpr3 acylated, acyl group not given here; listed as Homo sapiens)", "values": [{"measurement": "cumulative weight gain, times more than the vehicle-injected control animals", "setting": "[1]; [4]", "value": 2.2, "unit": "times"}]}, {"substance": "un-acylated SEQ ID NO:5: 29 amino acid human ghrelin splice variant without acyl group (GSSFLSPEHQRVQVRPPHKAPHVVPALPL; listed as Homo sapiens)", "values": [{"measurement": "cumulative weight gain, less than the vehicle-injected control animals", "setting": "[1]; [4]", "value": 25, "unit": "%"}, {"measurement": "cumulative food consumption, less than the vehicle-injected control animals", "setting": "[1]; 129Sv mice, 7.2 mg/kg subcutaneously once daily for seven days, n=8 per group", "value": 2, "unit": "%"}]}]}
